Measurements taken from patent EP0512754B1 (AMERICAN HOME PRODUCTS CORPORATION, priority 1991, dated 1992).
Where two headings read alike, the source gives them in different places.

What was measured:
[1] = system: mixed lymphocyte reaction; test: popliteal lymph node (PLN) test procedure, in vivo mixed lymphocyte reaction; set-up: species or system C3H mice; settings: for PLN Activity relative to Rapamycin: ratio to rapamycin
Protocol: (§1) Immunosuppressive activity was evaluated in an in vitro standard pharmacological test procedure to measure lymphocyte proliferation (LAF) and in two in vivo standard pharmacological test procedures. The first in vivo procedure was a popliteal lymph node (PLN) test procedure which measured the effect of compounds of this invention on a mixed lymphocyte reaction and the second in vivo procedure evaluated the survival time of a pinch skin graft.
A mixed lymphocyte reaction (MLR) occurs when lymphoid cells from genetically distinct animals are combined in tissue culture. Each stimulates the other to undergo blast transformation which results in increased DNA synthesis that can be quantified by the incorporation of tritiated thymidine. Since stimulating a MLR is a function of disparity at Major Histocompatibility antigens, an in vivo popliteal lymph node (PLN) test procedure closely correlates to host vs. graft disease. Briefly, irradiated spleen cells from BALB/c donors are injected into the right hind foot pad of recipient C3H mice. […] On Day 3 and Day 4, tritiated thymidine is given i.p., b.i.d. On Day 5, the hind popliteal lymph nodes are removed and dissolved, and radioactivity counted. The corresponding left PLN serves as the control for the PLN from the injected hind foot. Percent suppression is calculated using the non-drug treated animals as allogenic control.

[2] = system: cells from the thymus of normal BALB/c mice; test: comitogen-induced thymocyte proliferation procedure (LAF); assay type: cell-based; settings: read-out: LAF IC50
Protocol: as §1
The comitogen-induced thymocyte proliferation procedure (LAF) was used as an in vitro measure of the immunosuppressive effects of representative compounds. Briefly, cells from the thymus of normal BALB/c mice are cultured for 72 hours with PHA and IL-1 and pulsed with tritiated thymidine during the last six hours. […] Cells are harvested and incorporated; radioactivity is determined. Inhibition of lymphoproliferation is assessed in percent change in counts per minute from non-drug treated controls. […] (()^3 (H-control thymus cells - H)^3 rapamycin-treated thymus cells)/(()^3 (H-control thymus cells - H)^3 -test compound-treated cells) [formula]

[3] = system: pinch skin graft from male DBA/2 donors transplanted to male BALB/c recipients; test: pinch skin graft survival time; assay type: in vivo; settings: DBA/2 donors to BALB/c recipients, treated intraperitoneally; mean ± S.D.
Protocol: as §1
The second in vivo test procedure is designed to determine the survival time of pinch skin graft from male DBA/2 donors transplanted to male BALB/c recipients. The method is adapted from Billingham R.E. and Medawar P.B., J. Exp. Biol. 28:385-402, (1951). Briefly, a pinch skin graft from the donor is grafted on the dorsum of the recipient as a homograft, and an autograft is used as control in the same region. […] Untreated recipients serve as rejection control. The graft is monitored daily and observations are recorded until the graft becomes dry and forms a blackened scab. This is considered as the rejection day. The mean graft survival time (number of days ± S.D.) of the drug treatment group is compared with the control group.

[4] = system: Candida albicans ATCC 38248; test: plate test procedure for antifungal activity; assay type: cell-based; settings: strain ATCC 38248
Protocol: (§2) Antifungal activity of the compounds of this invention was measured against 5 strains of Candida albicans using a plate test procedure for measurement of inhibition. The following represents the typical procedure used. The compound to be tested was placed on sterile dried 1/4" plate disks, and allowed to dry. Agar plates were seeded with fungi and allowed to solidify. The impregnated disks were placed on the seeded Agar surface and incubated for the time required for the particular culture. Results are expressed in MIC (µg/ml) to inhibit growth.
(§3) The compounds of Examples 1 and 4 had the following minimal inhibitory concentrations (50%) against 5 strains of Candida albicans.

[5] = system: Candida albicans 3669; test: plate test procedure for antifungal activity; assay type: cell-based; settings: strain 3669
Protocol: as §2, §3

[6] = system: Candida albicans ATCC 10231; test: plate test procedure for antifungal activity; assay type: cell-based; settings: strain ATCC 10231
Protocol: as §2, §3

[7] = system: Candida albicans ATCC 38246; test: plate test procedure for antifungal activity; assay type: cell-based; settings: strain ATCC 38246
Protocol: as §2, §3

[8] = system: Candida albicans ATCC 38247; test: plate test procedure for antifungal activity; assay type: cell-based; settings: strain ATCC 38247
Protocol: as §2, §3

[9] = thymocytes cultured 72 hours with PHA and IL-1, tritiated thymidine incorporation
[10] = Mus musculus, Thymocyte, 72 h, thymocytes cultured 72 hours with PHA and IL-1, tritiated thymidine incorporation

| Compound | IC50 [2, 9] [nM] | Skin Graft Mean survival days [3] [days] | IC50 [2, 10] [nM] | PLN Activity relative to Rapamycin ([1]; ip) | also measured |
| --- | --- | --- | --- | --- | --- |
| 33-Deoxy-33-hydroxyrapamycin [Example 4] | 4.7 | 10.0 |  |  | PLN Activity relative to Rapamycin ([1]; route not printed in the cell (method: daily p.o. Day 0 to Day 4)): 0.59; Anti-Candida Activity, Minimal Inhibitory Concentration (50%) [4]: 0.006 µg/mL; Anti-Candida Activity, Minimal Inhibitory Concentration (50%) [5]: 0.25 µg/mL; Anti-Candida Activity, Minimal Inhibitory Concentration (50%) [6]: 0.05 µg/mL; Anti-Candida Activity, Minimal Inhibitory Concentration (50%) [7]: >0.4 µg/mL; Anti-Candida Activity, Minimal Inhibitory Concentration (50%) [8]: 0.03 µg/mL |
| CO[C@H]1C[C@@H]2CC[C@@H](C)[C@@](O)(O2)C(O)C(=O)N2CCCC[C@H]2C(=O)O[C@H]([C@H](C)C[C@@H]2CC[C@@H](O)[C@H](OC)C2)CC(O)[C@H](C)/C=C(\C)[C@@H](O)[C@@H](OC)C(=O)[C@H](C)C[C@H](C)/C=C/C=C/C=C/1C (single isomer, unassigned) [Example 2, 15,27-di(deoxo)-15,27-di(hydroxy)rapamycin] |  | 9.2 ± 0.41 | 0.67 |  |  |
| CO[C@H]1C[C@@H]2CC[C@@H](C)[C@@](O)(O2)C(O)C(=O)N2CCCC[C@H]2C(=O)O[C@H]([C@H](C)C[C@@H]2CC[C@@H](O)[C@H](OC)C2)CC(O)[C@H](C)/C=C(\C)[C@@H](O)[C@@H](OC)C(=O)[C@H](C)C[C@H](C)/C=C/C=C/C=C/1C (single isomer, unassigned) [Example 3, 15,27-di(deoxo)-15,27-di(hydroxy)rapamycin] | 0.84 | 9.5 ± 5.5 |  | 0.92 ip |  |
| CO[C@H]1C[C@@H]2CC[C@@H](C)[C@@](O)(O2)C(O)C(=O)N2CCCC[C@H]2C(=O)O[C@H]([C@H](C)C[C@@H]2CC[C@@H](O)[C@H](OC)C2)CC(=O)[C@H](C)/C=C(\C)[C@@H](O)[C@@H](OC)C(=O)[C@H](C)C[C@H](C)/C=C/C=C/C=C/1C (stereo partly shown) [Example 1, 15-Deoxo-15-hydroxyrapamycin] |  | 9.8 ± 1.0 | 0.58 | -0.07 | PLN Activity relative to Rapamycin ([1]; po): -2.47 |
| CO[C@H]1C[C@@H]2CC[C@@H](C)[C@@](O)(O2)C(=O)C(=O)N2CCCC[C@H]2C(=O)O[C@H]([C@H](C)C[C@@H]2CC[C@@H](O)[C@H](OC)C2)CC(=O)[C@H](C)/C=C(\C)[C@@H](O)[C@@H](OC)C(=O)[C@H](C)C[C@H](C)/C=C/C=C/C=C/1C [Rapamycin, reference compound] |  |  |  |  | Percent suppression (PLN) ([1]; 6 mg/kg, p.o., against non-drug treated allogenic control): 86%; IC50 ([2]; Mus musculus, Thymocyte, 72 h): 3.3 nM |
